Results taken from US20260284203A1 (priority 2023, published 2026).
Like-named read-outs stand apart in the source and are kept apart here.

What was measured:
[1] = test system: in vitro transcribed pregenomic HBV RNA (pgRNA); type: biochemical; conditions: for effect on pgRNA amplification / RNA transcription (RT-qPCR, Cp gene): either temperature (25° C. or 37° C.)
[2] = test system: in vitro transcribed pregenomic HBV RNA (pgRNA); experiment: pgRNA activity assay by denaturing agarose gel electrophoresis; type: biochemical; conditions: for pgRNA band on denaturing agarose gel / RNA bands on gel, free pgRNA: 900 μM; for pgRNA band on denaturing agarose gel: 1 hour; for RNA signal on gel, free pgRNA: 100 μM; for RNA signal on gel, free pgRNA / RNA bands on gel, free pgRNA: 1% or 10% DMSO
[3] = target: purified capsid protein assembly domain, Cp149 (Hepatitis B virus subtype adyw, UniProt P03147); experiment: Capsid assembly assay (size exclusion chromatography); type: biochemical, HBV; conditions: 10 μM Cp149 dimer, 20 μM compound, 24 h at room temperature, versus capsid control
Chain of purified capsid protein assembly domain, Cp149 (P03147 1-149): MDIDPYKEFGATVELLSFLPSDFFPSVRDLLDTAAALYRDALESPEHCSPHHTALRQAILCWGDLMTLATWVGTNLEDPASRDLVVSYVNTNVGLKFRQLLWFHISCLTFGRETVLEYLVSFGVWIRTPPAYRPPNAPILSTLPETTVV
Method: Stimulation of HBV virus assembly is a known property of CAM molecules. As structural changes can have unpredictable effects on function, a capsid assembly assay was conducted with exemplary rCAM DP41-0012 to evaluate whether the construct retained CAM activity. Relative peak HBV capsid volume following exposure to the exemplary rCAM was determined in comparison to dimer, DMSO, and capsid controls, along with CAM compounds bersacapavir and NVR-3-778.
To test capsid assembly, samples or controls were incubated for 20 minutes with purified capsid protein assembly domain, Cp149, so that final conditions were 10 μM Cp149 dimer 20 μM compound or control 2% DMSO 50 mM TrisHCl pH 7.5. To this mixture was added an equal volume of 600 mM NaCl 50 mM TrisHCl pH 7.5. Reactions were equilibrated for 24 h at room temperature and the resolved by size exclusion chromatography using a 10/300 Superose6 column running at 0.5 ml/minute. The running buffer for this column was 50 mM TrisHCl 300 mM NaCl. Elution profiles were recorded by absorbance at 280 nm. Integrated capsid peaks eluting between 16 and 20 minutes and dimer peaks eluting between 34 and 39 minutes were reported.

Supercoiled plasmid = experiment: In vitro DNA nicking assay; type: biochemical, E. coli; conditions: 10 μM CuCl2, 3 hours at room temperature (21° C.) in the dark
Method: The capacity of rCAM compounds to cause DNA damage was evaluated using an in vitro DNA nicking assay. Specifically, the double stranded DNA (dsDNA) nicking activity of exemplary rCAM DP41-0012 was compared to CAM compounds bersacapavir and NVR-3-778, and DMSO controls.
Supercoiled plasmid, the substrate for this assay, was purified from E. coli, using a Qiagen miniprep kit. A “master mix” of 3 ng/μl Miniprep DNA, 10 μM CuCl2, 20 mM TrisHCl pH7.5 was prepared. Samples included 99 μl of master mix plus 1 μl of compound or control. Reactions were incubated for 3 hours at room temperature (21° C.) in the dark. Aliquots of the reactions (20 μl) were resolved on a 0.8% TAE agarose gel with 1/20,000 SYBR Safe stain electrophoresed at 80V for 90 minutes. The gel was visualized on a ChemidocMP in fluorescein blot mode.

Cp149 dimers = Cp149 dimers (Hepatitis B virus subtype adyw, UniProt P03147); experiment: Cp149 dimer assembly with rCAM visualized by transmission electron microscopy; type: biochemical, HBV; conditions: dimer:rCAM 1:5, NaCl 300 mM, overnight at 25° C.
Chain of Cp149 dimers (P03147 1-149): as above
Method: Cp dimers were assembled with HAP-PEG2-CBL and HAP-PEG4-CBL to verify the HAP backbone's ability to bind the dimer-dimer interface. Cp149 dimers were mixed with each rCAM in a 1:5 ratio (dimer:rCAM). Assembly was induced by addition of NaCl (300 mM) followed by incubation overnight at 25° C. Assembly products were visualized via transmission electron microscopy (TEM) (FIG. 10). Assembly in NaCl alone led to normal spherical capsids (FIG. 10A). […] Boume, C., et al., J Virol 82:10262, 2008.

[4] = 25° C. and 37° C. (both temperature conditions)

In the case of `CO[C@@]12[C@H](COC(N)=O)C3=C(C(=O)C(C)=C(N)C3=O)N1C[C@@H]1N[C@@H]12` [mitomycin C], the “effect on pgRNA amplification / RNA transcription (RT-qPCR, Cp gene)” value ([1]; 900 μM, 1 hour) was “does affect RNA transcription”.
For `O=C(O)CCCc1ccc(N(CCCl)CCCl)cc1` [chlorambucil], the “reduction in RNA amplification (RT-qPCR, Cp gene)” value ([1]; 900 μM, 1 hour, 25° C.) was “approximately 1 log”, the “decrease in RNA levels (RT-qPCR, Cp gene)” value ([1]; 900 μM, 1 hour, 37° C.) was 4 log and the “pgRNA band on denaturing agarose gel” value [2, 4] was “completely dissipate RNA”.
`Cn1cc(S(=O)(=O)NCCNC(=O)c2cc(O)c(O)c(O)c2)cc1C(=O)Nc1ccc(F)c(C#N)c1` [DP41-0012, N-(3-cyano-4-fluorophenyl)-1-methyl-4-(N-(2-(3,4,5-trihydroxybenzamido)ethyl)-sulfamoyl)-1H-pyrrole-2-carboxamide] was tested, and the “relative peak capsid volume” value [3] was “exceeded that of the capsid control” and the “plasmid DNA form seen on agarose gel (dsDNA nicking activity)” value (from here on “plasmid DNA form seen on agarose gel”) (Supercoiled plasmid) was “DNA band corresponding to the size of a nicked circle”.
`O=C(Nc1cc(F)c(F)c(F)c1)c1ccc(F)c(S(=O)(=O)N2CCC(O)CC2)c1` [NVR-3-778] was tested, and the “plasmid DNA form seen on agarose gel” value (Supercoiled plasmid) was “supercoiled plasmid substrate was detectable”.
With `COC(=O)C1=C(CN2CCN(C(=O)CCOCCOCCOCCOCCOC(=O)CCCc3ccc(N(CCCl)CCCl)cc3)CC2)NC(c2ccccn2)=NC1c1ccc(F)cc1Cl` (stereo not drawn) [HAP-PEG4-CBL] the “RNA signal on gel, free pgRNA” value ([2]; 37° C.) was “slight reduction in RNA signal”, the “RNA bands on gel, free pgRNA” value ([2]; 37° C.) was “almost complete dissipation of RNA bands” and the “assembly products seen by TEM” value (Cp149 dimers) was “floret-shaped, aberrant particles”.
With `CN(C)c1nc(N(C)C)nc(N(C)C)n1` [altretamine] the “effect on pgRNA amplification / RNA transcription (RT-qPCR, Cp gene)” value ([1]; 900 μM, 1 hour) was “does affect RNA transcription”.
For phleomycin, the “effect on pgRNA amplification / RNA transcription (RT-qPCR, Cp gene)” value ([1]; 900 μM, 1 hour) was “does not suppress pgRNA amplification appreciably”, the “pgRNA band on denaturing agarose gel” value ([2]; 37° C.) was “completely disappeared” and the “pgRNA band on denaturing agarose gel” value ([2]; room temperature (25° C.)) was “reduced in width”.
For `COC(=O)C1=C(CN2CCN(C(=O)CCOCCOCCOC(=O)CCCc3ccc(N(CCCl)CCCl)cc3)CC2)NC(c2ccccn2)=NC1c1ccc(F)cc1Cl` (stereo not drawn) [HAP-PEG2-CBL, Methyl 6-((4-(3-(2-(2-((4-(4-(bis(2-chloroethyl)amino)phenyl)butanoyl)oxy)ethoxy)ethoxy)propanoyl)piperazin-1-yl)methyl)-4-(2-chloro-4-fluorophenyl)-2-(pyridin-2-yl)-1,4-dihydropyrimidine-5-carboxylate], the “RNA signal on gel, free pgRNA” value ([2]; 37° C.) was “slight reduction in RNA signal”, the “RNA bands on gel, free pgRNA” value ([2]; 37° C.) was “almost complete dissipation of RNA bands” and the “assembly products seen by TEM” value (Cp149 dimers) was “both spherical capsids, faceted/broken capsids, and flat, aberrant structures”.
`N.N.[Cl][Pt][Cl]` [cisplatin] was tested, and the “decrease in RNA levels (RT-qPCR, Cp gene)” value [1] was 3 log, the “reduction in RNA amplification (RT-qPCR, Cp gene)” value [1] was “approximately 1 log” and the “pgRNA band on denaturing agarose gel” value [2, 4] was “faster migrating and smeared bands”.
With `C[C@H](NS(=O)(=O)c1cc(C(=O)Nc2ccc(F)c(C#N)c2)n(C)c1)C(F)(F)F` [bersacapavir] the “plasmid DNA form seen on agarose gel” value (Supercoiled plasmid) was “supercoiled plasmid substrate was detectable”.
